TGI and GI50 data for 22 compounds are collected here from PubChem BioAssay (NCI).

Where “and” joins values, the source holds several entries; their conditions need not be identical. Equal entries are not always repeated.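 1) Cells in 96-well plates. 2) Compound, 48 h, 5 concentrations. 3) Linear interpolation between surrounding doses. 4) Unreached endpoint = highest concentration. Abbreviation: GI50, concentration required for 50% inhibition of growth. TGI: total growth inhibition.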

What all share (experiment): growth of human tumour cells (NCI), 48 h
Assay [1] has as its system SF-295 CNS.
The test system of assay [2] is IGROV1 ovarian.
Assay [3] has as its system RPMI-8226 leukemia.
The test system of assay [4] is OVCAR-3 ovarian.
Assay [5] concerns A498 renal.
In assay [6] the test system is SK-MEL-5 melanoma.
Assay [7] deals with MALME-3M melanoma.
Assay [8] has as its system COLO 205 colon.
Assay [9] has as its system KM12 colon.
Assay [10] concerns NCI-H23 lung.

Turning to `CC(=O)OC1C(COC(N)=O)OC(n2c(-c3ccc(C)cc3)cc(-c3ccccc3)c(C#N)c2=O)C(OC(C)=O)C1OC(C)=O` (stereo unspecified), the TGI in assay [1], in [2], in assay [3], in assay [4], in assay [5] and in assay [6] was greater than 100 µM throughout. Further, the TGI in assay [7], in [8], in assay [9] and in assay [10] was greater than 100 µM throughout.
Take `O=C(NC(=S)Nc1ccc(-c2nc3ccccc3[nH]2)cc1)c1ccc2ccccc2c1`: the GI50 in assay [2] was 7.66 µM; in [3], 2.62 µM; in assay [4] it was 3.22 µM; in assay [5], 10.7 µM; in [6], 3.63 µM; in assay [7], 2.14 µM. Further, the GI50 in assay [8] was 4.98 µM; in assay [9], 6.49 µM; in assay [10], 17.8 µM. Further, the TGI is greater than 100 µM in assay [2]; 9.29 µM in [3]; 10.1 µM in assay [4]; 57.8 µM in assay [5]; greater than 100 µM in assay [6]; 5.54 µM in assay [7]. In addition, the TGI in assay [8] was 46.5 µM; in assay [9] it was greater than 100 µM; in [10], greater than 100 µM.
Take `CCC(CO)COC(=O)/C=C/C(=O)OCC(CC)CO` (stereo unspecified): the TGI in assay [1], in assay [2], in [3], in assay [4], in assay [5] and in assay [6] was greater than 100 µM each time. The TGI in assay [7], in assay [8], in assay [9] and in assay [10] was greater than 100 µM each time.
For `O=C(/C=C/c1cccnc1)c1ccccc1`, the GI50 in assay [1] was 14.3 µM; in assay [2] it was 4.97 µM; in [3], 2.46 µM; in [4], 4.25 µM; in assay [5], 11.7 µM; in assay [6], 14.3 µM. Also, the GI50 in assay [7] was 15.7 µM; in assay [8] it was 13.9 µM; in assay [9], 2.33 µM; in assay [10], 17.3 µM. For the same compound, the TGI in assay [1] stood at 29.3 µM; in [2], 25.6 µM; in [3] it was 6.24 µM; in assay [4], 15.7 µM; in assay [5] it was 23.9 µM; in assay [6] it was 27.5 µM. Moreover, the TGI is 35.9 µM in [7], 28.8 µM in assay [8], 6.87 µM in assay [9] and 39.5 µM in assay [10].
Consider `CC[n+]1c(/C=C/c2ccc(N3CCCC3)cc2)cccc1/C=C/c1ccc(N2CCCC2)cc1`, for which the GI50 in assay [1] was 0.263 µM; in [2], 0.532 µM; in assay [3], 0.0072 µM and 0.0149 µM; in [4], 0.255 µM; in assay [5], 0.344 µM and 0.239 µM; in [6], 0.116 µM. Besides, the GI50 in [7] was 0.293 µM; in [8] it was 0.164 µM; in [9] it was 0.116 µM; in assay [10] it was 0.0743 µM and 0.0876 µM. Moreover, the TGI in assay [1] was 1.9 µM; in assay [2] it was 2.4 µM; in assay [3], 0.131 µM and 0.261 µM; in [4] it was 0.811 µM; in [5], 1.15 µM and 0.828 µM; in [6] it was 0.274 µM. For the same compound, the TGI in assay [7] is 2.13 µM; in [8], 0.341 µM; in [9] it was 0.238 µM; in [10], 0.982 µM and 1.41 µM.
Regarding `CCOc1ccc(N=C2NC(=O)C(CC(=O)Nc3ccc(Cl)cc3Cl)S2)cc1` (stereo unspecified), the TGI in assay [1], in assay [2], in assay [3], in assay [4], in assay [5] and in assay [6] was greater than 100 µM throughout. Also, the TGI in [7], in [8], in assay [9] and in assay [10] was greater than 100 µM throughout.
Regarding `CCOC(=O)c1c2c(n(Cc3ccccc3)c1C)-c1nc[nH]c1C(=O)C2=O`, the GI50 was 15.3 µM in assay [1]; 16.7 µM in assay [2]; 1.1 µM in [3]; 13.9 µM in assay [4]; 16.3 µM in assay [5]; 15.9 µM in [6]. In addition, the GI50 was 11.3 µM in assay [7], 20.2 µM in assay [8] and 13.9 µM in assay [9]. Besides, the TGI came out at 30.9 µM in assay [1]; 30.6 µM in assay [2]; 10.7 µM in assay [3]; 26.8 µM in assay [4]; 30.1 µM in assay [5]; 29.8 µM in [6]. In addition, the TGI in [7] came out at 23.9 µM; in assay [8] it was 35.1 µM; in assay [9] it was 27.7 µM.
For `CCOC(=O)c1cc2c(OC)cc(OC)cc2oc1=O`, the TGI in assay [1], in assay [2], in assay [3], in assay [4], in assay [5] and in assay [6] was greater than 100 µM in each case. Besides, the TGI in assay [7], in [8] and in assay [10] was greater than 100 µM in each case.
As to `COc1ccc(/C=C2\C(=O)Nc3ccccc32)cc1OC`, the TGI is greater than 100 µM in assay [1]; greater than 100 µM in [2]; 64 µM in [3]; greater than 100 µM in [5]; greater than 100 µM in [6]; greater than 100 µM in assay [7]. The TGI in assay [8], in assay [9] and in assay [10] was greater than 100 µM in each case.
Consider `OCC(O)COc1ccc(F)cc1` (stereo unspecified), for which the TGI in assay [1], in [2], in [4], in assay [5], in [6] and in [7] was greater than 100 µM throughout. Moreover, the TGI in assay [8], in [9] and in assay [10] was greater than 100 µM throughout.
As to `CN(CCNc1ccc(C(=N)N)cc1)c1ccc(C(=N)N)cc1`, the GI50 in [1] is 5.8 µM; in assay [2], 68.8 µM; in assay [4] it was 37.3 µM; in assay [5], 4.43 µM; in [6], 13.2 µM; in [7] it was 26.6 µM. Also, the GI50 is 17 µM in assay [8], 38.3 µM in [9] and 21.6 µM in assay [10]. Moreover, the TGI in [1] is 60.2 µM; in [2] it was greater than 100 µM; in [4], greater than 100 µM; in [5] it was 44.7 µM; in [6], 28.3 µM; in assay [7], greater than 100 µM. For the same compound, the TGI is 41.1 µM in assay [8], greater than 100 µM in assay [9] and greater than 100 µM in [10].
As for `CCOC(=O)c1sc(Nc2cc(Cl)ccc2Cl)nc1C`, the TGI in [1], in assay [2], in assay [3], in [4], in [5] and in assay [7] was greater than 100 µM throughout. In addition, the TGI in assay [8], in [9] and in assay [10] was greater than 100 µM in each case.
In the case of `CN1C(=O)CNS1(=O)=O`, the TGI in assay [1], in assay [2], in [3], in assay [4], in assay [5] and in assay [6] was greater than 100 µM each time. The TGI in assay [7], in assay [9] and in assay [10] was greater than 100 µM in each case.
For the compound `c1ccc2c(CNCCCN3CCN(CCCNCc4cccc5ccccc45)CC3)cccc2c1`, the TGI in [1] turned out to be 3.28 µM; in [2], 10.1 µM; in [4] it was 9.53 µM; in [5] it was 22.9 µM; in [6], 3.14 µM; in assay [7], 3.56 µM. Further, the TGI in [8] is 3.85 µM; in assay [9], 3.7 µM; in assay [10], 23.6 µM.
As for `CCCCN(CCCC)C(=O)C(=O)C(C(=O)C(=O)OC)c1nc2ccccc2o1` (stereo unspecified), the TGI in assay [1], in [2], in [4], in assay [5], in [6] and in assay [7] was greater than 100 µM each time. Besides, the TGI in assay [8], in assay [9] and in assay [10] was greater than 100 µM throughout.
Regarding `O=C([CH-]C(=O)c1ccccc1)c1ccccc1.O=C([CH-]C(=O)c1ccccc1)c1ccccc1.[CH2-]CCC.[CH2-]CCC.[Sn+4]`, the GI50 in assay [1] is 1.12 µM; in assay [2] it was 1.21 µM; in [3] it was 0.11 µM; in assay [4] it was 0.758 µM; in assay [5] it was 0.369 µM; in assay [6] it was 0.25 µM. Also, the GI50 in [7] is 0.271 µM; in assay [8], 0.31 µM; in assay [9], 0.728 µM. In addition, the TGI in assay [1] worked out at 2.35 µM; in [2] it was 2.79 µM; in [3], 0.334 µM; in assay [4] it was 2.13 µM; in [5], 1.5 µM; in [6], 1.21 µM. For the same compound, the TGI in [7] turned out to be 1.35 µM; in [8] it was 1.23 µM; in [9] it was 2.28 µM.
For `O=C(CSc1nc2ccc([N+](=O)[O-])cc2[nH]1)Nc1ccc([N+](=O)[O-])cc1`, the GI50 in [1] is 2.03 µM; in [2] it was 2.71 µM; in [3], 1.27 µM; in [4], 2.05 µM; in [5], 1.34 µM; in assay [6], 1.2 µM. Besides, the GI50 was 1.88 µM in assay [7], 2.65 µM in assay [9] and 2.14 µM in [10]. In addition, the TGI is 6.43 µM in assay [1]; 15.2 µM in assay [2]; greater than 23.2 µM in assay [3]; 10.9 µM in assay [4]; 3.8 µM in assay [5]; 2.54 µM in assay [6]. The TGI worked out at 8.1 µM in [7], 12.9 µM in assay [9] and 9.51 µM in assay [10].
With `CN1C[C@@H]2CC(=O)CC[C@@H]2C[C@H]1C#N`, the TGI in assay [1], in assay [2], in assay [3], in assay [4], in assay [5] and in assay [6] was greater than 100 µM each time. The TGI in [7] and in assay [9] was greater than 100 µM each time.
In the case of `CC1=CC=C2C(C)(C)CC[C@@H]3OC(=O)[C@H]1[C@]23C`, the TGI in [1], in [2], in assay [4], in [5], in assay [6] and in assay [7] was greater than 100 µM each time. Besides, the TGI in assay [8], in assay [9] and in assay [10] was greater than 100 µM in each case.
As for `CC[C@H]1[C@@H](C)C=C[C@@H](C)N1S(=O)(=O)c1ccc(C)cc1`, the TGI in [1], in assay [3], in [4], in assay [5], in assay [6] and in assay [7] was greater than 100 µM in each case. Besides, the TGI in assay [8], in [9] and in assay [10] was greater than 100 µM in each case.
Turning to `COC(=O)C(=O)C(C(=O)C(=O)Nc1ccccc1C(N)=O)c1nc2ccc([N+](=O)[O-])cc2[nH]c1=O` (stereo unspecified), the TGI in assay [1], in assay [2], in [3], in assay [5], in [6] and in [7] was greater than 100 µM in each case. Besides, the TGI in [8], in assay [9] and in assay [10] was greater than 100 µM throughout.
On to `S=c1sc2sc(=S)sc2s1`, for which the TGI in assay [1] was 72 µM; in assay [2], greater than 100 µM; in assay [3], greater than 100 µM; in assay [5], 48.2 µM; in [6], greater than 100 µM; in assay [7] it was greater than 100 µM. For the same compound, the TGI in assay [8] and in assay [9] was greater than 100 µM throughout.
